For eight compounds, IC50 and half-life results are on record in US11292788B2, “IL-17 and IFN-gamma inhibition for the treatment of autoimmune diseases and chronic inflammation” (Immunic AG, priority 2017, dated 2022).

In one data set the test system is IL-17A. Briefly: Cytokine assay: IL-17A production by human PBMC stimulated with PHA. It counts as cell-based. As to conditions: IC50 class, read-out: IL-17A Inhib. Summed up: (§1)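 Human donor PBMC (1×10^5 cells/well) were activated with 2 μg/ml PHA and exposed to compounds for 48 h. Supernatant IL-17A, IL-17F and IFN-γ were measured by Luminex or ELISA. Screening used 10, 1, 0.1 and 0.01 μM; IC50 values came from semilogarithmic titrations.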

The subject of the next data set is IL-17F. The data set is described as follows: Cytokine assay: IL-17F production by human PBMC stimulated with PHA. The format is cell-based. The following applies: IC50 class, read-out: IL-17F Inhib. Put shortly:
as §1

The subject of another data set is INF-γ. The data set is described as follows: Cytokine assay: INF-γ production by human PBMC stimulated with PHA. It counts as cell-based. The following applies: Homo sapiens, PBMC, IC50 class, read-out: IFN-gamma Inhib. Put shortly:
as §1

Data set [1] in a line: Microsomal stability: incubation with human liver microsomes, residual parent compound by HPLC-MS/MS. The following applies: up to 60 min, read-out: t1/2 hLM. It counts as in vitro ADME. The procedure: Metabolic stability of compounds of the present invention was determined by incubation with human liver microsomes and subsequent determination of residual amount of the respective compound (“parent compound”) by HPLC-MS/MS.
In order to achieve this, in a final reaction volume of 1000 μl, each compound was incubated at a final concentration of 1 μM with 0.5 mg/ml human liver microsomes (HLM Pool 50 Donors, 20 mg/ml, BD Gentest, #452156, LotNr 88114) in 0.1 M Potassium phosphate buffer at pH 7.4, with a cofactor in form of a NADPH regenerating system (Promega, #V9510) according to the manufacturers' specifications. The final DMSO concentration in each sample was 0.4%. The incubation was performed at 37° C. under shaking conditions (Thermomixer, 1400 rpm) for different time intervals up to 60 min. To stop the reaction, for each time point 200 μl of the reaction were taken out and 200 μl ice-cold acetonitrile was added. Then, the samples were centrifuged (4° C., 14000*g for 15 min). The supernatant was analyzed for residual parent compound concentration and scanned for metabolites using HPLC-MS/MS. By using optimized MS methods for each compound, the peak area under curve for the compound specific signal is determined. The change of the peak areas over the assay time of 60 min resemble the remaining parent compound in % of T0. By these points, a balancing line was set. The half-time, as well as the clearance, can then be calculated on the basis of the slope.
On the technique in general: Liver microsomes are a subcellular fraction often used to study metabolism.

Where [2] appears, read: human liver microsomes 0.5 mg/ml, compound 1 μM, pH 7.4, 37° C.

Where two headings read alike, the source gives them in different places. A value given as a limit tells only on which side of the number the result lay.

Turning to `Cc1c(-c2onc(-c3ccccc3Cl)c2C(=O)OC2CC2)cnn1[C@H]1C[C@@](C)(O)C1` [Example 53, cyclopropyl 3-(2-chlorophenyl)-5-{5-methyl-1-[3-hydroxy-3-methylcyclobutyl]-1H-pyrazol-4-yl}-1,2-oxazole-4-carboxylate], the IC50 in the data set on IL-17A, with IL-17F and with INF-γ was < 50 nM throughout. Also, in data set [1] (setting [2]), the half-life at 1 μM was > 100 min.

As to `CC(C)(O)Cn1ncc(-c2onc(-c3c(F)cccc3Cl)c2C(=O)OC2CC2)c1C(F)(F)F` [Example 55, cyclopropyl 3-(2-chloro-6-fluorophenyl)-5-[1-(2-hydroxy-2-methylpropyl)-5-(trifluoromethyl)-1H-pyrazol-4-yl]-1,2-oxazole-4-carboxylate], the IC50 with IL-17A (Homo sapiens, PBMC) was < 50 nM; in the data set on IL-17F (Homo sapiens, PBMC), < 50 nM; in the data set on INF-γ it was < 50 nM. Also, in data set [1] (setting [2]), the half-life at 1 μM lay in the range of 40 to 100 min.

On to `C[C@@H](O)Cn1ncc(-c2onc(-c3c(F)cccc3Cl)c2C(=O)OC2COC2)c1C(F)(F)F` [Example 58, oxetan-3-yl 3-(2-chloro-6-fluorophenyl)-5-{1-[(2R)-2-hydroxypropyl]-5-(trifluoromethyl)-1H-pyrazol-4-yl}-1,2-oxazole-4-carboxylate], for which the IC50 was 50 to 500 nM with IL-17A (Homo sapiens, PBMC); < 50 nM with IL-17F (Homo sapiens, PBMC); < 50 nM with INF-γ. The half-life at 1 μM in data set [1] (setting [2]) fell in the range of 40 to 100 min.

For the compound `Cc1c(-c2onc(-c3c(F)cccc3Cl)c2C(=O)OC2CC2)cnn1[C@H]1C[C@@](C)(O)C1` [Example 61, cyclopropyl 3-(2-chloro-6-fluorophenyl)-5-{5-methyl-1-[3-hydroxy-3-methylcyclobutyl]-1H-pyrazol-4-yl}-1,2-oxazole-4-carboxylate], the IC50 in the data set on IL-17A (Homo sapiens, PBMC) is < 50 nM; in the data set with IL-17F (Homo sapiens, PBMC), < 50 nM; with INF-γ it was < 50 nM. The half-life at 1 μM in data set [1] (setting [2]) was in the range of 40 to 100 min.

For `COCc1c(-c2c(F)cccc2Cl)noc1-c1cnn([C@H]2C[C@@](C)(O)C2)c1C(F)(F)F` [Example 69, 3-(4-(3-(2-chloro-6-fluorophenyl)-4-(methoxymethyl)isoxazol-5-yl)-5-(trifluoromethyl)-1H-pyrazol-1-yl)-1-methylcyclobutan-1-ol], the IC50 in the data set with IL-17A (Homo sapiens, PBMC) was 50 to 500 nM; with IL-17F (Homo sapiens, PBMC), 50 to 500 nM; in the data set on INF-γ, < 50 nM. Moreover, the half-life at 1 μM in data set [1] (setting [2]) is > 100 min.

On to `C[C@@H](O)Cn1ncc(-c2onc(-c3c(F)cccc3Cl)c2COC2CC2)c1C(F)(F)F` [Example 85, (2R)-1-(4-(3-(2-chloro-6-fluorophenyl)-4-(cyclopropoxymethyl)isoxazol-5-yl)-5-(trifluoromethyl)-1H-pyrazol-1-yl)propan-2-ol], for which the IC50 is < 50 nM in the data set on IL-17A (Homo sapiens, PBMC); < 50 nM in the data set with IL-17F (Homo sapiens, PBMC); < 50 nM in the data set with INF-γ. In data set [1] (setting [2]), the half-life at 1 μM is 10 to 40 min.

In the case of `C[C@]1(O)C[C@@H](n2ncc(-c3onc(-c4c(F)cccc4Cl)c3COC3CC3)c2C(F)(F)F)C1` [Example 86, 3-(4-(3-(2-chloro-6-fluorophenyl)-4-(cyclopropoxymethyl)isoxazol-5-yl)-5-(trifluoromethyl)-1H-pyrazol-1-yl)-1-methylcyclobutan-1-ol], the IC50 with IL-17A (Homo sapiens, PBMC) is < 50 nM; with IL-17F (Homo sapiens, PBMC) it was < 50 nM; in the data set with INF-γ it was < 50 nM. Further, the half-life at 1 μM in data set [1] (setting [2]) is > 100 min.

Consider `C[C@]1(O)C[C@@H](n2ncc(-c3onc(-c4cccc(OCCN5CCOCC5)c4Cl)c3COC3CC3)c2C(F)(F)F)C1` [Example 92, 3-(4-(3-(2-chloro-3-(2-morpholinoethoxy)phenyl)-4-(cyclopropoxymethyl)isoxazol-5-yl)-5-(trifluoromethyl)-1H-pyrazol-1-yl)-1-methylcyclobutan-1-ol], for which the IC50 in the data set with IL-17A (Homo sapiens, PBMC) was < 50 nM; in the data set with IL-17F (Homo sapiens, PBMC), < 50 nM; in the data set with INF-γ it was < 50 nM. In data set [1] (pH 7.4, human liver microsomes, 1 μM compound, 0.5 mg/ml HLM, 37° C.), the half-life at 1 μM was 2 to 9.99 min.
